Measurements from patent publication US20120027819A1, “Medical Devices Incorporating a Bioactive and Methods of Preparing Such Devices” (priority 2006, published 2012).

Key:
[1] = Elution of bupivacaine from spray-coated ureteral stents in aqueous buffers (Example 1, FIG. 7); assay type: physicochemical; conditions: for time to release/elute from coated stent (in words): ionic form coated on stent, aqueous environment, same conditions, hydrochloride
From the text: (§1) An approximately 0.6% solution of bupivacaine having a tertiary amine in the non-ionic form (formula (2a) above) in dichloromethane was loaded into a syringe mounted onto a syringe pump and connected to a tube that carried the solution to an ultrasonic nozzle (Model 06-05108—Sono-Tek Co., Poughkeepsie, N.Y. 12547.) A nozzle was 6 mm diameter, 11 mm long and used with a nominal frequency of 120 kHz. Air was purged from the solution line and the spray nozzle primed with the solution. The coating chamber was purged with nitrogen to attain an oxygen concentration below 100 ppm. The solution was sprayed onto ureteral stent substrates 20 to 280 mm long (polyurethane double pigtail soflex ureteral stent, Cook Incorporated (Bloomington, Ind.)). A smooth, uniform coating was observed. Control stents were coated with the same concentration of Bupivacaine.HCl using the above coating method.
The stents were placed in solutions at different pH values to test the elution of bupivacaine over time. […] Acetic acid/sodium acetate was used for the pH 4.5 buffer, 0.1M phosphate-buffered solution (PBS) for the pH 7.0 buffer, and sodium carbonate for the pH 9.5 buffer.

[2] = Exposure of coated ureteral stent to water / aqueous environment (FIGS. 8, 10); assay type: physicochemical
From the text: as §1
FIGS. 8-11 depict photomicrographs of the coatings showing the uniformity and tenacity of the non-ionic coatings, in contrast to the water-soluble ionic coatings. […] FIG. 9 depicts a relatively rough, crystalline coating 91 of bupivacaine-HCl on a ureteral stent 90, on the left, and the same stent after a one-minute ex vivo exposure to a pig ureter.
FIG. 11 then depicts the same type of stent 110 with a coating 114 of the non-ionic form of bupivacaine after 24 hours in an ex vivo test with a pig ureter.

[3] = cited from earlier work
[4] = cited from earlier work; remark: listed apart in the source

| time to release/elute from coated stent (in words) [1] | time to release/elute from coated stent (in words) ([1]; listed as bupivacaine.HCl) | state of coating after dipping in water ([2]; dipped in water for one minute) | period over which release from ureteral stent occurs ([1]; non-ionic form coated on ureteral stent, buffers pH 4.5, 7.0, 9.5) | state of coating after aqueous exposure ([2]; exposed to an aqueous environment for several days) | Compound | water solubility (in words) [3] | effect of eluting solution pH on elution rate ([1]; increasing the pH from 4.5 to 9.5) | solubility ([3]; base or non-ionic form, water) | pKa ([4]; Table 1, acidic proton of proton binding site) | pKa of acidic proton of proton binding site ([4]; in water) |
| --- | --- | --- | --- | --- | --- | --- | --- | --- | --- | --- |
| within a matter of minutes | eluted fully within minutes | substantially dissolved |  |  | CCCCN1CCCCC1C(=O)Nc1c(C)cccc1C.Cl (stereo not drawn) [Bupivacaine.HCl, 1-butyl-N-(2,6-dimethylphenyl)-2-piperidinecarboxamide hydrochloride] | soluble in water |  |  |  |  |
|  |  |  |  |  | C[C@@H]1C[C@H]2[C@@H]3CCC4=CC(=O)C=C[C@]4(C)[C@@]3(F)[C@@H](O)C[C@]2(C)[C@@]1(O)C(=O)CO [Dexamethasone] | practically insoluble in water |  |  |  |  |
|  |  |  | about 12 days | virtually no effect on the coating | CCCCN1CCCCC1C(=O)Nc1c(C)cccc1C (stereo not drawn) [bupivacaine, 1-Butyl-N-(2,6-dimethylphenyl)-2-piperidinecarboxamide] | only very slightly soluble in water | slightly slowed the rate of bupivacaine elution | about 0.2 mg/mL | 8.09 | about 8 |
